Structures can show the parent of a compound that is named as a salt.
Experiments:
[1] = system: adjuvant arthritis (Mycobacterium tuberculosis adjuvant); assay: Adjuvant arthritis test; type: in vivo, SD male rats; details: 5 mg/Kg subcutaneous, 9 times; left hind leg; average value from 16th to 20th days; * P<0.05, ** P<0.01, *** P<0.001 vs control
Source text: Next, a result of tests made on immuno-modulating activity in the adjuvant arthritis test is shown.
The adjuvant arthritis in rats caused by the injection of a Mycobacterium tuberculosis adjuvant is often utilized for a model test of chronic rheumatoid arthritis in the human.
The mechanism of manifestation of this disease has not completely been elucidated, but it is known that the cellular immunity plays an important role. The immuno-modulating activity of the compounds according to this invention was investigated in accordance with this known adjuvant arthritis test.
8-Week-old SD male rats were used for the test. In 0.1 ml of fluid paraffin, 0.4 mg of dry dead cells of Mycobacterium tuberculosis were suspended, and the suspension was injected under the heel skin of the right hind leg of each rat. Each of the compounds according to this invention was subcutaneously administered 9 times in total before and after the injection of the adjuvant. Each of the compounds of the present invention was dissolved or suspended in a 0.2% solution of carboxymethylcellulose in physiological saline and administered to each rat at a dose of 5 mg per Kg of the body weight. The swollen volume of the left hind leg was measured during the period extending from the day of injection to the day of completion of the test, and the swelling ratio was calculated. For comparison, a similar test was conducted using Levamisole hydrochloride. F.t tests were carried out on the test results obtained.

[2] = system: delayed hypersensitivity induced by picryl chloride; assay: Reinforcement test of delayed hypersensitivity (picryl chloride); type: in vivo, ICR male mice; details: 50 mg/Kg oral, simultaneously with sensitization; 24 hours after challenging; average of both pinnae of eight mice; * P<0.05, ** P<0.01 vs control
Source text: This feature will hereinafter be described by way of test examples. Various test systems using animals have been routinely adopted for the determination of immunomodulating activity.
The delayed hypersensitivity induced on a mouse when picryl chloride(2-chloro-1,3,5-trinitrobenzene) is applied onto the skin of the mouse is known as a typical cellular immunity.
This test system was used for the reinforcement tests of the delayed hypersensitivity.
Groups of eight ICR male mice, each having a body weight of about 30 g or so, were used for the test.
Sensitization was effected by applying a 3% solution of picryl chloride in a 4/1 mixture of olive oil and acetone onto the shaved abdomen of each of the mice.
Simultaneously with the sensitization, a solution or suspension of a compound according to this invention dissolved or suspended in a 0.2% solution of carboxymethyl cellulose in a physiological saline was orally administered to the mouse at a dose of 50 mg per Kg of its body weight. To each mouse of a control group, a 0.2% carboxymethylcellulose solution in a physiological saline was similarly administered.
The delayed hypersensitivity was induced 7 days after the sensitization by pinching each of the pinnae of each mouse with a pair of forceps whose tip portions were wrapped with a felt impregnated with a 1% solution of picryl chloride in olive oil and coating the pinnae with the solution. The thickness of each pinna was measured before the challenging and 24 hours after the challenging and the ratio of increase of the thickness (average value of both of the pinnae of the eight mice) is shown in Table 1.
For comparison, a similar test was carried out using Levamisole hydrochloride.
F.t tests were carried out on the thus-obtained test results.

[3] = system: ddY male mice; assay: Acute toxicity test through oral administration; type: in vivo; details: five ddY male mice per group, watched 7 days
Source text: TEST EXAMPLE 3 (ACUTE TOXICITY TEST THROUGH ORAL ADMINISTRATION)
Test Procedures: To each of a group of five ddY male mice, was orally administered a medicine dissolved or suspended in physiological saline. They were watched for 7 days after the administration and an estimated LD50 value was obtained.

SMILES | Swell suppression ratio to control group [1] [%] | Ratio of Increase of Pinna Thickness [2] [%] | estimated LD50 value [3] [mg/kg]
c1ccc([C@H]2CN3CCSC3=N2)cc1 [Levamisole.HCl, Levamisole hydrochloride, reference compound] | 19.8 | 31.2 | 200 to 300
CCOC(=O)Nc1nc(-c2ccc([N+](=O)[O-])cc2)cs1 [drawing 11] | 71.4 | – | –
O=C(Nc1nc(-c2ccc([N+](=O)[O-])cc2)cs1)OCC(Cl)(Cl)Cl [drawing 9] | 45.0 | – | –
CCOC(=O)Nc1nc(-c2ccc([N+](=O)[O-])cc2)cs1 [drawing 7] | – | 34.8 | –
CS(=O)(=O)c1ccc(-c2csc(NC(=O)OCC(Cl)(Cl)Cl)n2)cc1 [drawing 10] | 30.0 | – | –
CS(=O)(=O)c1ccc(-c2csc(NC(=O)OCC(Cl)(Cl)Cl)n2)cc1 [drawing 6] | – | 37.8 | –
CCOC(=O)Nc1nc(-c2ccc(S(C)(=O)=O)cc2)cs1 [drawing 8] | – | 36.0 | –
CCOC(=O)Nc1nc(-c2ccc(S(C)(=O)=O)cc2)cs1 [drawing 12] | 47.6 | – | –
O=C(Nc1nc(-c2ccc([N+](=O)[O-])cc2)cs1)OCC(Cl)(Cl)Cl [drawing 5] | – | 36.1 | –
